Experiment [1] relates to severe septic patients. As to the kind of experiment: Human clinical test of E5564 in severe septic patients. It is filed as in vivo. The note with it: patients meeting at least three SIRS criteria and sCD14-ST equal to or greater than cut-off. The method, then: (§1) According to one example of the patient selection standards, E5564 is administered to a patient who meets at least three items of the SIRS diagnostic criteria to [4] and whose sCD14-ST concentration is equal to or greater than the cut-off value. Addition of the sCD14-ST concentration to the indexes used in setting the patient selection standards enables establishment of the patient selection standards that suit the action mechanism of E5564 and thus permits further improvement in E5564 efficacy than when the patient selection standards are set using only the physiological conditions as indexes.

Experiment [2] concerns rabbit CLP model. As to the kind of experiment: Rabbit CLP model with E5564 (Example 3-1). Type of experiment: in vivo. Particulars: 3 mg/kg to 10 mg/kg; 1 and 5 hours or 2 and 6 hours after surgery. The method, then:
A rabbit CLP model is prepared as in Example 1. The E5564 administration timing is set to 1 hour and 5 hours after surgery or 2 hours and 6 hours after surgery and, as in Example 1, the sCD14-ST concentration in the blood at the time the therapeutic agent is administered is later checked with reference to the blood sCD14-ST concentration transition data. The dosage of E5564 is 3 mg/kg to 10 mg/kg. The body temperature and the leukocyte count of the rabbits are measured with time and used as indexes of the physiological conditions.

Experiment [3] relates to severe septic patients. Particulars: high-dosage group; mortality risk 20% to 80% by APACHE II Score; cited from earlier work.
Experiment [4] concerns rabbit CLP model. As to the kind of experiment: Resatorvid-administered rabbit CLP model (Example 4). Type of experiment: in vivo. The method, then:
Two Resatorvid-administered groups were set with different administration timings. Ten mg/kg of Resatorvid was intravenously administered at timings of 1 hour and 5 hours after surgery to one group (hereinafter referred to as first-hour administered group) and 3 hours and 7 hours after surgery to the other group (hereinafter referred to as third-hour administered group). A group not to be administered Resatorvid (hereinafter referred to as control group) was administered a 10% aqueous solution of cyclodextrin, a Resatorvid solvent, 1 hour and 5 hours after surgery. Each of the groups consisted of 10 individuals; survival was checked until 48 hours after surgery. The platelet count and the leukocyte count were measured until 24 hours after surgery.

For experiment [5], the system named is severe septic patients. As to the kind of experiment: Human clinical test of Resatorvid in severe septic patients. Type of experiment: in vivo. Particulars: patients meeting at least three SIRS criteria and sCD14-ST equal to or greater than cut-off. The method, then: The specific standards used for selection of patients are as follows: Severe sepsis meets at least three items of the SIRS diagnostic criteria to [4], and the patient has or is suspected to have an infection requiring treatment with antibiotics. Septic shock needs a vasopressor to maintain a systolic blood pressure of at least 90 mmHg even under an appropriate body fluid management.
as §1, with “Resatorvid” for “E5564”, “enables” for “permits”

Experiment [6] relates to rabbit CLP model. As to the kind of experiment: Rabbit CLP model with Resatorvid (Example 2-1). Particulars: 3 mg/kg to 10 mg/kg; 1 and 5 hours or 2 and 6 hours after surgery. Type of experiment: in vivo. The method, then:
A rabbit CLP model is prepared as in Example 1. The Resatorvid administration timing is set to 1 hour and 5 hours after surgery or 2 hours and 6 hours after surgery and, as in Example 1, the blood sCD14-ST concentration at the time the therapeutic agent is administered is later checked with reference to the blood sCD14-ST concentration transition data. The dosage of Resatorvid is 3 mg/kg to 10 mg/kg. The body temperature and the leukocyte count of the rabbits are measured with time and used as indexes of the physiological conditions.

For experiment [7], the system named is severe septic patients. Particulars: severe sepsis with shock or respiratory failure, cited from earlier work.
Experiment [8] has as its system cecal ligation and puncture-induced peritonitis rabbit model (rabbit CLP model). As to the kind of experiment: Rabbit CLP sepsis model, F1024S-D2(3) administered (Example 1). Type of experiment: in vivo. The note with it: for Survival time: 10 mg/kg intravenously two hours after surgery. How it is done: A cecal ligation and puncture-induced peritonitis rabbit model (rabbit CLP model; CLP for cecal ligation and puncture) was used as the sepsis model to verify the improvement in efficacy of the therapeutic agent for sepsis when a patient to be administered the therapeutic agent for sepsis (F1024S-D2(3)) was selected using the sCD14-ST concentration as index. The rabbit CLP model was prepared using male rabbits, New Zealand white, each weighing 1.5 kg to 1.99 kg on arrival (Kitayama Labes Co., Ltd.), which had their cecum punctured under anesthesia at two places to make holes each measuring 2 cm to release the cecal contents into the peritoneal cavity according to the method described by Keith A et al (Journal of Surgical Research, Vol. 29, 189 (1980)). In order to stabilize the postsurgical state, all the operated individuals were intravenously administered 60 mg/kg of Shiomarin (Latamoxef Sodium for administration by injection, Shionogi & Co., Ltd.) two hours after surgery.
Blood was sampled at intervals before and after surgery to measure the sCD14-ST concentrations in the blood. The sCD14-ST concentrations in the blood were measured by the method described in Example 3 in WO2009/142303. In this model, the pathology progresses within several hours, resulting in death within 7 to 8 hours after surgery in the earliest cases. Because the measured values of the sCD14-ST concentration in the blood can only be known five to six hours after blood sampling, administering the therapeutic agent only after checking the results is belated. Therefore, the administration timing of the therapeutic agent was set to two hours after surgery, and the blood sCD14-ST concentration at the time when the therapeutic agent was administered was later checked with reference to blood sCD14-ST concentration transition data. Using the respective sCD14-ST concentrations in the blood before surgery of the individuals as normal values, twice the normal values were set as the respective cut-off values. Thus, the survival rates of the cases where the sCD14-ST concentrations in the blood were at least twice the normal values at the time of administration of the therapeutic agent were compared with that of the control cases (see Table 1). The therapeutic agent-administered cases were intravenously administered 10 mg/kg of F1024S-D2(3). The control cases were intravenously administered 10 mg/kg of human immunoglobulin (hIg) in lieu of F1024S-D2(3).
The transition of the sCD14-ST concentration in the blood reflects the severity of sepsis.

Experiment [9] concerns human vascular endothelial cell. The note with it: cited from earlier work.
The test system of experiment [10] is LPS-induced sepsis rabbit model. The note with it: cited from earlier work.
The test system of experiment [11] is cecal ligation and puncture-induced peritonitis rabbit model. Particulars: CLP-induced peritonitis rabbit model; cited from earlier work.

Entries after “also recorded” stand apart in the source; their conditions may differ. Structures can show the parent of a compound that is named as a salt. Where two headings read alike, the source gives them in different places.

As to `CCCCCC/C=C\CCCCCCCCCC(=O)N[C@H]1[C@H](OC[C@H]2O[C@H](OP(=O)(O)O)[C@H](NC(=O)CC(=O)CCCCCCCCCCC)[C@@H](OCCCCCCCCCC)[C@@H]2O)O[C@H](COC)[C@@H](OP(=O)(O)O)[C@@H]1OCC[C@@H](CCCCCCC)OC` [E5564, α-D-Glucopyranose, 3-O-decyl-2-deoxy-6-O-[2-deoxy-3-O-[(3R)-3-methoxydecyl]-6-O-methyl-2-[[(11Z)-1-oxo-11-octadecenyl]amino]-4-O-phosphono-β-D-glucopyranosyl]-2-[(1,3-dioxotetradecyl)amino]-1-(dihydrogen phosphate), tetrasodium salt], the “Efficacy when patient selection standards use sCD14-ST concentration as index” value in experiment [1] was “improvement in E5564 efficacy can be observed”. In addition, in experiment [2], the “Efficacy when sCD14-ST concentration is used as index” value is “reveals improvement in the efficacy”. In experiment [3], the Mortality rate result is “a tendency to reduce the mortality rate was observed in a high-dosage group, but it was of no statistic significance”.
For the molecule `CCOC(=O)C1=CCCC[C@H]1S(=O)(=O)Nc1ccc(F)cc1Cl` [Resatorvid, ethyl (6R)-6-[N-(2-chloro-4-fluorophenyl)sulfonyl]cyclohex-1-ene-1-carboxylate], the “Recovery in leukocyte count, first-hour versus third-hour administered group” value in experiment [4] (10 mg/kg i.v.) is “observed more significantly in the first-hour administered group than in the third-hour administered group”. Moreover, in experiment [4] (10 mg/kg i.v. at 1 and 5 hours or 3 and 7 hours after surgery, checked until 48 hours), the “Survival rate versus control group” value is “survival rates improved in the first-hour Resatorvid-administered group and the third-hour Resatorvid-administered group over the control group”. Moreover, the Platelet count result in [4] (12th hour after surgery, 10 mg/kg i.v.) is given as “showed a tendency to recover at the 12th hour after surgery, but failed to recover”. The “Leukocyte count versus control group” value in experiment [4] (24th hour after surgery, 10 mg/kg i.v.) is reported as “showed recovery in leukocyte count as compared with the control group”. Further, the “Survival rate, first-hour versus third-hour administered group” value in experiment [4] (first 24 hours, 10 mg/kg i.v.) is “the first-hour administered group showed a higher survival rate than the third-hour administered group”. The “Efficacy when patient selection standards use sCD14-ST concentration as index” value in experiment [5] was “improvement in Resatorvid efficacy can be observed”. Besides, in [6], the “Efficacy when sCD14-ST concentration is used as index” value was “reveals improvement in the efficacy”. Moreover, the Mortality rate entry in experiment [7] (high-dosage group) is “a tendency to reduce the mortality rate was observed among the high-dosage group, it was of no statistic significance; also recorded: a tendency to reduce the mortality rate was observed in the high-dosage group, it was of no statistic significance”. Moreover, the “Serum IL-6 level” value in experiment [7] is “failed to suppress the serum IL-6 level”.

B1: F1024S-D2(3): modified form of an anti-CD14 antibody in which the domain 2 of urinary trypsin inhibitor (UTI) is bound to the anti-CD14 antibody; fusion protein (antibody)
heavy: QIQLVQSGPELKKPGESVKISCKASGYTFTDYAMNWVKQAPGNGLKWMGWINTQTGKPTYADDFKQRFVFSLETSASTAYLQINNLNIEDTATYFCTRSTFYYSSYIYGWYFDFWGPGTMVTVSSASTKGPSVFPLAPCSRSTSESTAALGCLVKDYFPEPVTVSWNSGALTSGVHTFPAVLQSSGLYSLSSVVTVPSSSLGTKTYTCNVDHKPSNTKVDKRVESKYGPPGPSGPAPEFLGGPSVFLFPPKPKDTLMISRTPEVTCVVVDVSQEDPEVQFNWYVDGVEVHNAKTKPREEQFNSTYRVVSVLTVLHQDWLNGKEYKCKVSNKGLPSSIEKTISKAKGQPREPQVYTLPPSQEEMTKNQVSLTCLVKGFYPSDIAVEWESNGQPENNYKTTPPVLDSDGSFFLYSRLTVDKSRWQEGNVFSCSVMHEALHNHYTQKSLSLSLGKGSTVAACNLPIVSGPCRAFIKLWAFDAVKGKCVLFPYGGCQGNGNKFDSEKECREYCGVPGDGDEELLRFSN
light: DIVMTQSPTSISISVGERVTMNCKASQNVGSNVDWYQQKTGQSPKLLIYKASNRYTGVPDRFTGSGSGTDFTFTISNMQAVDLAVYYCMQSNTNPPWTFGGGTKLELKRTVAAPSVFIFPPSDEQLKSGTASVVCLLNNFYPREAKVQWKVDNALQSGNSQESVTEQDSKDSTYSLSSTLTLSKADYEKHKVYACEVTHQGLSSPVTKSFNRGEC
For the molecule B1, the Survival time stood at 7 h in [8] (Severity Especially high), 23 h in experiment [8] (Severity High) and 47 h in [8] (Severity Medium). For the same molecule, the “Effect on survival time versus control cases” value in [8] (especially high severity cases) is recorded as “no difference in survival time was observed”; in experiment [8] (medium to high severity cases, administered when blood sCD14-ST at least twice the normal value), “an effect of prolonging the survival time was observed”. The “Production of IL-6 induced by LPS stimulation” value in [9] was “suppress production of IL-6”. Moreover, the Survival rate entry in experiment [10] is “improve the survival rate of an LPS-induced sepsis rabbit model”; in [11] it was “improve the survival rate of a cecal ligation and puncture-induced peritonitis rabbit model”.

The values are drawn from patent US20130280252A1, “METHOD FOR SELECTING PATIENT TO BE GIVEN DRUG FOR TREATING SEPTICEMIA” (MOCHIDA PHARMACEUTICAL CO., LTD., priority 2011, published 2013).
